{"source": "patent US9012611B2", "about": "“Use of 3,8,12,14, 17,20-oxo-substituted pregnene glycosides in the preparation of healthcare products, food additives and pharmaceuticals for the inhibition of appetite” (Institute of Materia Medica, Chinese Academy of Sciences, priority 2010, dated 2015)", "key": {"female Wistar rat": {"system": "female Wistar rat", "assay": "Animal test in vivo: average food consumption (appetite inhibition)", "details": "positive control 15 mg/kg", "method": "(§1) 6-7 weeks-old female Wistar rat (purchased from Shanghai Laboratory Animal Center of Chinese Academy of Sciences)(weight: 110-150 g) was raised alone in suspended metal cage. After the experimental rat was obtained, it was checked to make sure whether they were abnormal or had obvious disease signs. The rat can freely obtain the drinking-water and feed for rodent (RM1(E)AQC). The feeding cage was controlled to receive 12 h illumination (from 07:00 to 19:00) and to be in a dark environment for 12 h, and the room temperature and relative humidity were controlled to be 21±3° C. and 55±15% respectively and not to deviate the upper and lower limit. The rats were randomly divided into groups depending on the body weight according to random number table to make the average weight in each group are approximately equal. Before the test, the rats were pre-trained suitably for one week (from −7th day to −1st day) during which the consumptions of feed and drinking water were recorded.\n(§2) Each group of drug to be tested, positive control group, and blank control group consisted of 5 rats, respectively. The tested drug and positive control drug were mixed with wheaten starch before the administration and formulated to suspension with required doses according to 10 mL/kg of administration volume. The positive control drug was sibutramine hydrochloride and the administration dosage was 15 mg/kg body weight. In the blank control group, only equal amount of starch was used to formulate suspension for administration by […] in a same volume. The administration time is the 1st day, 2nd day and 3rd day. The body weight of the rat, the consumption of the feed (the weight of the feeding hopper) and consumption of the drinking water (bottle weight) were recorded from the −7th day to the 7th day."}, "[1]": {"assay": "Animal test in vivo: average body weight", "design": "species or system rat", "details": "positive control 15 mg/kg", "method": "as §1, §2"}}, "note": "Where a name gives a salt, the structure may show the parent alone."}
{"smiles": "CC(C)CC(N(C)C)C1(c2ccc(Cl)cc2)CCC1", "note": "(centres unmarked) [Positive control, sibutramine hydrochloride, reference compound]", "values": [{"measurement": "Average food consumptions", "setting": "female Wistar rat; 1st day (administration day), Table 1, crude extract 300 mg/kg, others 50 mg/kg", "result": 5.0, "unit": "g"}, {"measurement": "Average food consumptions", "setting": "female Wistar rat; 1st day (administration day), Table 4, wilfosides 50 mg/kg", "result": 4, "unit": "g"}, {"measurement": "Average food consumptions", "setting": "female Wistar rat; 2nd day (administration day), Table 1, crude extract 300 mg/kg, others 50 mg/kg", "result": 8.5, "unit": "g"}, {"measurement": "Average food consumptions", "setting": "female Wistar rat; 2nd day (administration day), Table 4, wilfosides 50 mg/kg", "result": 7.6, "unit": "g"}, {"measurement": "Average food consumptions", "setting": "female Wistar rat; 3rd day (administration day), Table 1, crude extract 300 mg/kg, others 50 mg/kg", "result": 13.0, "unit": "g"}, {"measurement": "Average food consumptions", "setting": "female Wistar rat; 3rd day (administration day), Table 4, wilfosides 50 mg/kg", "result": 8.4, "unit": "g"}, {"measurement": "Average food consumptions", "setting": "female Wistar rat; 4th day (after administration on days 1-3), Table 1, crude extract 300 mg/kg, others 50 mg/kg", "result": 14.0, "unit": "g"}, {"measurement": "Average food consumptions", "setting": "female Wistar rat; 4th day (after administration on days 1-3), Table 4, wilfosides 50 mg/kg", "result": 10, "unit": "g"}, {"measurement": "Average food consumptions", "setting": "female Wistar rat; 5th day (after administration on days 1-3), Table 1, crude extract 300 mg/kg, others 50 mg/kg", "result": 13.5, "unit": "g"}, {"measurement": "Average food consumptions", "setting": "female Wistar rat; 5th day (after administration on days 1-3), Table 4, wilfosides 50 mg/kg", "result": 12.8, "unit": "g"}, {"measurement": "Average food consumptions", "setting": "female Wistar rat; 6th day (after administration on days 1-3), Table 1, crude extract 300 mg/kg, others 50 mg/kg", "result": 14.5, "unit": "g"}, {"measurement": "Average food consumptions", "setting": "female Wistar rat; 6th day (after administration on days 1-3), Table 4, wilfosides 50 mg/kg", "result": 14.4, "unit": "g"}, {"measurement": "Average food consumptions", "setting": "female Wistar rat; 7th day (after administration on days 1-3), Table 1, crude extract 300 mg/kg, others 50 mg/kg", "result": 17.5, "unit": "g"}, {"measurement": "Average food consumptions", "setting": "female Wistar rat; 7th day (after administration on days 1-3), Table 4, wilfosides 50 mg/kg", "result": 14.8, "unit": "g"}, {"measurement": "Average food consumptions", "setting": "female Wistar rat; −1st day (before administration), Table 1, crude extract 300 mg/kg, others 50 mg/kg", "result": 14.5, "unit": "g"}, {"measurement": "Average food consumptions", "setting": "female Wistar rat; −1st day (before administration), Table 4, wilfosides 50 mg/kg", "result": 13.2, "unit": "g"}, {"measurement": "Average food consumptions", "setting": "female Wistar rat; −2nd day (before administration), Table 1, crude extract 300 mg/kg, others 50 mg/kg", "result": 14.5, "unit": "g"}, {"measurement": "Average food consumptions", "setting": "female Wistar rat; −2nd day (before administration), Table 4, wilfosides 50 mg/kg", "result": 16, "unit": "g"}, {"measurement": "Average food consumptions", "setting": "female Wistar rat; −3rd day (before administration), Table 1, crude extract 300 mg/kg, others 50 mg/kg", "result": 15.5, "unit": "g"}, {"measurement": "Average food consumptions", "setting": "female Wistar rat; −3rd day (before administration), Table 4, wilfosides 50 mg/kg", "result": 12.8, "unit": "g"}, {"measurement": "Average food consumptions", "setting": "female Wistar rat; −4th day (before administration), Table 1, crude extract 300 mg/kg, others 50 mg/kg", "result": 14.5, "unit": "g"}, {"measurement": "Average food consumptions", "setting": "female Wistar rat; −4th day (before administration), Table 4, wilfosides 50 mg/kg", "result": 12.8, "unit": "g"}, {"measurement": "Average food consumptions", "setting": "female Wistar rat; −5th day (before administration), Table 1, crude extract 300 mg/kg, others 50 mg/kg", "result": 14.5, "unit": "g"}, {"measurement": "Average food consumptions", "setting": "female Wistar rat; −5th day (before administration), Table 4, wilfosides 50 mg/kg", "result": 14.8, "unit": "g"}, {"measurement": "Average food consumptions", "setting": "female Wistar rat; −6th day (before administration), Table 1, crude extract 300 mg/kg, others 50 mg/kg", "result": 15.3, "unit": "g"}, {"measurement": "Average food consumptions", "setting": "female Wistar rat; −6th day (before administration), Table 4, wilfosides 50 mg/kg", "result": 10.8, "unit": "g"}, {"measurement": "Average food consumptions", "setting": "female Wistar rat; −7th day (before administration), Table 1, crude extract 300 mg/kg, others 50 mg/kg", "result": 11.5, "unit": "g"}, {"measurement": "Average food consumptions", "setting": "female Wistar rat; −7th day (before administration), Table 4, wilfosides 50 mg/kg", "result": 10.4, "unit": "g"}, {"measurement": "Average body weight", "setting": "[1]; 1st day (administration day), Table 3, crude extract 300 mg/kg, others 50 mg/kg", "result": 142.4, "unit": "g"}, {"measurement": "Average body weight", "setting": "[1]; 1st day (administration day), Table 6, wilfosides 50 mg/kg", "result": 133.2, "unit": "g"}, {"measurement": "Average body weight", "setting": "[1]; 2nd day (administration day), Table 3, crude extract 300 mg/kg, others 50 mg/kg", "result": 140, "unit": "g"}, {"measurement": "Average body weight", "setting": "[1]; 2nd day (administration day), Table 6, wilfosides 50 mg/kg", "result": 128.4, "unit": "g"}, {"measurement": "Average body weight", "setting": "[1]; 3rd day (administration day), Table 3, crude extract 300 mg/kg, others 50 mg/kg", "result": 141.6, "unit": "g"}, {"measurement": "Average body weight", "setting": "[1]; 3rd day (administration day), Table 6, wilfosides 50 mg/kg", "result": 128.4, "unit": "g"}, {"measurement": "Average body weight", "setting": "[1]; 4th day (after administration on days 1-3), Table 3, crude extract 300 mg/kg, others 50 mg/kg", "result": 146.8, "unit": "g"}, {"measurement": "Average body weight", "setting": "[1]; 4th day (after administration on days 1-3), Table 6, wilfosides 50 mg/kg", "result": 132.4, "unit": "g"}, {"measurement": "Average body weight", "setting": "[1]; 5th day (after administration on days 1-3), Table 3, crude extract 300 mg/kg, others 50 mg/kg", "result": 148.4, "unit": "g"}, {"measurement": "Average body weight", "setting": "[1]; 5th day (after administration on days 1-3), Table 6, wilfosides 50 mg/kg", "result": 135.6, "unit": "g"}, {"measurement": "Average body weight", "setting": "[1]; 6th day (after administration on days 1-3), Table 3, crude extract 300 mg/kg, others 50 mg/kg", "result": 153.6, "unit": "g"}, {"measurement": "Average body weight", "setting": "[1]; 6th day (after administration on days 1-3), Table 6, wilfosides 50 mg/kg", "result": 138.4, "unit": "g"}, {"measurement": "Average body weight", "setting": "[1]; 7th day (after administration on days 1-3), Table 3, crude extract 300 mg/kg, others 50 mg/kg", "result": 158.8, "unit": "g"}, {"measurement": "Average body weight", "setting": "[1]; 7th day (after administration on days 1-3), Table 6, wilfosides 50 mg/kg", "result": 142, "unit": "g"}, {"measurement": "Average body weight", "setting": "[1]; −1st day (before administration), Table 3, crude extract 300 mg/kg, others 50 mg/kg", "result": 154.8, "unit": "g"}, {"measurement": "Average body weight", "setting": "[1]; −1st day (before administration), Table 6, wilfosides 50 mg/kg", "result": 145.6, "unit": "g"}, {"measurement": "Average body weight", "setting": "[1]; −2nd day (before administration), Table 3, crude extract 300 mg/kg, others 50 mg/kg", "result": 152.8, "unit": "g"}, {"measurement": "Average body weight", "setting": "[1]; −2nd day (before administration), Table 6, wilfosides 50 mg/kg", "result": 144.4, "unit": "g"}, {"measurement": "Average body weight", "setting": "[1]; −3rd day (before administration), Table 3, crude extract 300 mg/kg, others 50 mg/kg", "result": 152, "unit": "g"}, {"measurement": "Average body weight", "setting": "[1]; −3rd day (before administration), Table 6, wilfosides 50 mg/kg", "result": 140.8, "unit": "g"}, {"measurement": "Average body weight", "setting": "[1]; −4th day (before administration), Table 3, crude extract 300 mg/kg, others 50 mg/kg", "result": 149.6, "unit": "g"}, {"measurement": "Average body weight", "setting": "[1]; −4th day (before administration), Table 6, wilfosides 50 mg/kg", "result": 138, "unit": "g"}, {"measurement": "Average body weight", "setting": "[1]; −5th day (before administration), Table 3, crude extract 300 mg/kg, others 50 mg/kg", "result": 145.6, "unit": "g"}, {"measurement": "Average body weight", "setting": "[1]; −5th day (before administration), Table 6, wilfosides 50 mg/kg", "result": 135.6, "unit": "g"}, {"measurement": "Average body weight", "setting": "[1]; −6th day (before administration), Table 3, crude extract 300 mg/kg, others 50 mg/kg", "result": 144.8, "unit": "g"}, {"measurement": "Average body weight", "setting": "[1]; −6th day (before administration), Table 6, wilfosides 50 mg/kg", "result": 132.8, "unit": "g"}, {"measurement": "Average body weight", "setting": "[1]; −7th day (before administration), Table 3, crude extract 300 mg/kg, others 50 mg/kg", "result": 140.4, "unit": "g"}, {"measurement": "Average body weight", "setting": "[1]; −7th day (before administration), Table 6, wilfosides 50 mg/kg", "result": 132, "unit": "g"}]}
